Results: US20180066268A1, “USE OF VITAMINS AND VITAMIN METABOLIC GENES AND PROTEINS FOR RECOMBINANT PROTEIN PRODUCTION IN MAMMALIAN CELLS” (priority 2015, published 2018)

Experiments:
[1] = tested on: CHO-M cells; assay: CHO-M growth in B-CDmin medium supplemented with various concentrations of B5 and H; format: cell-based, Chinese hamster; conditions: B5 in 10× excess with low H (10×B5; 10^−4×H), 6 days of culture
Protocol: Cells were seeded at 20000 cells/ml into 500 μl of B-CD min media supplemented with the indicated amounts of vitamin B5 and H, and with B1 (1×). A 24 well-plate was used and growth was measured after 6 days of culture by measuring viable cell density.

[2] = tested on: CHO-M cells; assay: CHO-M growth in vitamin-depleted B-CDmin medium complemented with lower concentrations of each vitamin; format: cell-based, Chinese hamster
Protocol: Cells (5000 cells/ml) were transferred into 150 μl media with different concentrations of vitamin B1, B5 or H (from 0 to 1×, see Table 2). 96 well-plates were used and growth was measured after 9 days of culture, by measuring the OD at 600 nm. Hatched (forward-leaning), dotted dark and hatched (backward-leaning) bars indicate modulation of B1, B5 and H concentrations, respectively.
The depleted B-CDmin medium was complemented with lower concentration of each vitamin separately, to determine the contrations range limiting CHO-M growth.
Suspension Chinese hamster ovary cells (CHO-M) were maintained in suspension culture in SFM4CHO-M Hyclone serum-free medium (SFM, ThermoScientific™) supplemented with L-glutamine (PAA, Austria) and HT supplement (GIBCO, INVITROGEN LIFE SCIENCES) at […], 5% CO2 in humidified air. Other cell media used for these experiments are the BalanCD CHO-M Growth A (B-CDfull; Irvine Scientific), and the Deficient BalanCD CHO-M Growth A (B-CDmin; Irvine Scientific), supplemented with vitamin B1 (thiamine Hydrochloride; SIGMA ALDRICH), vitamin B5 (Calcium DL-Pantothenate; TCI) and vitamin H (Biotin, SIGMA ALDRICH)

Compound | untransformed cell growth relative to complete medium (1×B5; 10^−4×H) [1] | concentration allowing normal culture growth ([2]; relative to standard B5 concentration (1× = 2.5 μM)) | cell density versus full medium ([2]; H at low concentration (10^−5×)) | limiting concentration ([2]; absolute concentration as printed, CHO-M, 9 days of culture) [µM] | growth-limiting concentration range ([2]; relative to standard concentration (1×: B1 7.5 μM, B5 2.5 μM, H 0.5 μM), CHO-M, 9 days of culture)
Calcium DL-Pantothenate [B5] | strongly inhibited | ≥ 10^−2 × |  |  | 
O=C(O)CCCC[C@@H]1SC[C@@H]2NC(=O)N[C@@H]21 [H, Biotin] |  |  | slightly higher | < 5 | lower than 10^−5 ×
